Test results taken from publication PMC12040169 (PLOS Biology, 2025).
Converted amounts (≈) assume the structure as drawn. Read-outs that look alike come from different tables or passages of the source.

Experiments:
B. adolescentis = tested on: T1, B. adolescentis; assay: microbe, parasite or virus in culture; design: Microbial growth in liquid dilution assay, OD600 relative to DMSO control; conditions: Bifidobacterium adolescentis; estimated IC50; read-out: B. adolescentis, IC50 (µM) estimate
T1 construct: DSM 20083
Procedure, shortened: (§1)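 Growth of commensal bacteria was measured in a dilution assay with test compounds at concentrations including 30 µM. In a separate radial diffusion format, bacteria were exposed to compounds for 24–48 h and growth inhibition zones were measured.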

B. thetaiotaomicron = tested on: T2, B. thetaiotaomicron; assay: microbe, parasite or virus in culture; design: Microbial growth in liquid dilution assay, OD600 relative to DMSO control; conditions: Bacteroides thetaiotaomicron; estimated IC50; read-out: B. thetaiotaomicron, IC50 (µM) estimate
T2 construct: DSM 2079
Procedure, shortened: as §1

E. coli = tested on: T3, E. coli; assay: microbe, parasite or virus in culture; design: Microbial growth in liquid dilution assay, OD600 relative to DMSO control; conditions: Escherichia coli; estimated IC50; read-out: E. coli, IC50 (µM) estimate
T3 construct: DSM 301
Procedure, shortened: as §1

E. faecalis = tested on: T4, E. faecalis; assay: microbe, parasite or virus in culture; design: Microbial growth in liquid dilution assay, OD600 relative to DMSO control; conditions: Enterococcus faecalis; estimated IC50; read-out: E. faecalis, IC50 (µM) estimate
T4 construct: DSM 20478
Procedure, shortened: as §1

L. reuteri = tested on: T5, L. reuteri; assay: microbe, parasite or virus in culture; design: Microbial growth in liquid dilution assay, OD600 relative to DMSO control; conditions: Limosilactobacillus reuteri; estimated IC50; read-out: L. reuteri, IC50 (µM) estimate
T5 construct: DSM 20016
Procedure, shortened: as §1

[1] = tested on: T6, CTL2-GFP (C. trachomatis L2/434/Bu, GFP-expressing); assay: microbe, parasite or virus in culture; design: Intracellular C. trachomatis growth in HeLa cells, bulk GFP fluorescence relative to DMSO; conditions: Chlamydia trachomatis, HeLa, 28.5 h; bulk GFP
T6 construct: L2/434/Bu, GFP-expressing
Procedure: (§2) MICs were calculated as described above.

[2] = tested on: T6, CTL2-GFP (C. trachomatis L2/434/Bu, GFP-expressing); assay: microbe, parasite or virus in culture; design: species or system HeLa; Intracellular C. trachomatis growth in HeLa cells, bulk GFP fluorescence relative to DMSO; conditions: Chlamydia trachomatis, 28.5 h; bulk GFP
Procedure: as §2

in vitro [3] = assay: in vitro; design: Viability of infected HeLa host cells, resazurin conversion, bulk resorufin fluorescence relative to DMSO; conditions: human, hela cells; bulk resorufin, single well
in vitro [4] = assay: in vitro; design: Viability of infected HeLa host cells, resazurin conversion, bulk resorufin fluorescence relative to DMSO; conditions: human, hela cells; bulk resorufin, mean of 3
[5] = tested on: T6, CTL2-GFP (C. trachomatis L2/434/Bu, GFP-expressing); assay: microbe, parasite or virus in culture; design: C. trachomatis growth in HeLa, dose-response, mean of bulk GFP fluorescence and imaged total inclusion area; conditions: Chlamydia trachomatis, HeLa, 28.5 h; mean of GFP and inclusion area
Procedure, shortened: (§3)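 A 36,785-compound library was screened using bulk GFP and resorufin fluorescence, followed by Hoechst staining and high-content imaging of inclusions (GFP) and host nuclei. Inclusion area and number served as growth proxies and nuclei counts as a viability proxy. MICs were calculated from these readouts.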

[6] = tested on: T6, CTL2-GFP (C. trachomatis L2/434/Bu, GFP-expressing); assay: microbe, parasite or virus in culture; design: species or system HeLa; C. trachomatis growth in HeLa, dose-response, mean of bulk GFP fluorescence and imaged total inclusion area; conditions: Chlamydia trachomatis, 28.5 h; mean of GFP and inclusion area
Procedure, shortened: as §3

[7] = tested on: T7, C. trachomatis L2/434/Bu expressing GFP (CTL2-GFP); assay: microbe, parasite or virus in culture; design: C. trachomatis GFP growth in infected HeLa cells, bulk GFP fluorescence normalised to DMSO; conditions: Chlamydia trachomatis, HeLa, 26 h; read-out: IC50 (µM), bulk GFP fluorescence
T7 construct: L2/434/Bu GFP intracellular growth in HeLa cells
Procedure: as §2

[8] = tested on: T7, C. trachomatis L2/434/Bu expressing GFP (CTL2-GFP); assay: microbe, parasite or virus in culture; design: C. trachomatis total inclusion area by high-content imaging, normalised to DMSO; conditions: Chlamydia trachomatis, HeLa, 28.5 h; read-out: IC50 (µM), total inclusion area
Procedure, shortened: as §3

[9] = tested on: T6, CTL2-GFP (C. trachomatis L2/434/Bu, GFP-expressing); design: species or system HeLa; Intracellular C. trachomatis growth in HeLa cells, bulk GFP fluorescence relative to DMSO; conditions: 28.5 h, 10 µM; inhibitor
[10] = tested on: T7, C. trachomatis L2/434/Bu expressing GFP (CTL2-GFP); design: species or system HeLa; C. trachomatis total inclusion area by high-content imaging, normalised to DMSO; conditions: 28.5 h, 10 µM; inhibitor
Source text: In this process, we also complemented the assay described above with an imaging-based readout (Fig 1B). After measurements of bulk GFP and resorufin fluorescence, cells were fixed, stained with the DNA dye Hoechst, and imaged at a high-content imaging platform to detect chlamydial inclusions (GFP) and host cell nuclei (Hoechst). The total area and number of inclusions in individual wells and the number of nuclei then served as additional proxies for chlamydial growth and host cell viability. […] MICs were calculated as described above.

in vitro [11] = conditions: human, hela cells

With `CCc1nnc(NS(=O)(=O)c2ccc(NC(=O)COc3ccc4ccccc4c3)cc2)s1` [c5v] the IC50 (B. adolescentis) was > 30 µM, the IC50 (B. thetaiotaomicron) was > 30 µM and the IC50 (E. coli) was > 30 µM. For the same compound, the IC50 (E. faecalis) was > 30 µM, the IC50 (L. reuteri) was > 30 µM and the IC50 [1] was 1.43 µM. It also gave an MIC [2] of 2.24 µM (≈ 1.05 µg/mL).
Compound `S=P(Oc1ccccc1)(Oc1ccccc1)Oc1ccccc1` [CBK260987] has a viability at 28.5 h, 10 µM (in vitro [3]) of 87.5%.
In the case of `CNC(=S)N1CCN(c2nsc3ccccc23)CC1` [c6e], the viability at 28.5 h, 0.000416667 µM (in vitro [4]) is reported as 103%, the viability at 28.5 h, 0.00125 µM (in vitro [4]) is reported as 100% and the viability at 28.5 h, 0.00375 µM (in vitro [4]) is reported as 99.1%. For the same compound, the viability at 28.5 h, 0.0123333 µM (in vitro [4]) was 101%, the viability at 28.5 h, 0.037 µM (in vitro [4]) was 97.3% and the viability at 28.5 h, 0.111 µM (in vitro [4]) was 105%. It also gave a viability at 28.5 h, 0.333 µM (in vitro [4]) of 101%, a viability at 28.5 h, 1 µM (in vitro [4]) of 108% and a viability at 28.5 h, 3 µM (in vitro [4]) of 103%. For the same compound, the viability at 28.5 h, 10 µM (in vitro [4]) was 102%, the viability at 28.5 h, 30 µM (in vitro [4]) was 76% and the IC50 [5] was 0.413 µM. For the same compound, the IC50 (B. adolescentis) was > 30 µM, the IC50 (B. thetaiotaomicron) was > 30 µM and the IC50 (E. coli) was > 30 µM. The IC50 (E. faecalis) was > 30 µM, the IC50 (L. reuteri) was > 30 µM and the MIC [6] was 0.771 µM (≈ 0.225 µg/mL).
For `COc1c(Br)cc2c(cc(C)n2-c2ccccc2)c1OCC(O)CNC(C)C` (stereo not shown) [c5e], the viability at 28.5 h, 0.000416667 µM (in vitro [4]) was 87.7%, the viability at 28.5 h, 0.00125 µM (in vitro [4]) was 89.3% and the viability at 28.5 h, 0.00375 µM (in vitro [4]) was 86.3%. The viability at 28.5 h, 0.0123333 µM (in vitro [4]) was 90.9%, the viability at 28.5 h, 0.037 µM (in vitro [4]) was 88.9% and the viability at 28.5 h, 0.111 µM (in vitro [4]) was 91.6%. The viability at 28.5 h, 0.333 µM (in vitro [4]) was 87.6%, the viability at 28.5 h, 1 µM (in vitro [4]) was 92.4% and the viability at 28.5 h, 3 µM (in vitro [4]) was 89.5%. For the same compound, the viability at 28.5 h, 10 µM (in vitro [4]) was 97%, the viability at 28.5 h, 30 µM (in vitro [4]) was 0% and the IC50 [5] was 0.375 µM. The IC50 (B. adolescentis) was 10.3 µM, the IC50 (B. thetaiotaomicron) was > 30 µM and the IC50 (E. coli) was > 30 µM. For the same compound, the IC50 (E. faecalis) was > 30 µM, the IC50 (L. reuteri) was > 30 µM and the MIC [6] was 0.767 µM (≈ 0.343 µg/mL).
In the case of `O=C(NN=Cc1ccc([N+](=O)[O-])o1)c1nc(-c2ccccc2)cc(-c2ccccc2)n1` [c3e], the IC50 [7] is reported as 0.118 µM and the IC50 [8] is reported as 0.133 µM.
In the case of `CCn1cc(C(=O)O)c(=O)c2cc(F)c(NC3CCCCC3)cc21` [CBK286635], the “% of control remaining” value [9] is reported as 100.652, the “% of control remaining” value [10] is reported as 72.3144 and the viability at 28.5 h, 10 µM (in vitro [11]) is reported as 89.2%.
